Measured values taken from patent publication US12612407B2, “Imidazo[2,1-f][1,2,4]triazin-4-amine derivatives as TLR7 agonist” (BEIGENE, LTD., priority 2020, dated 2026).

Key:
human TLR 8 protein = biological target: T1, human TLR 8 protein (Homo sapiens, UniProt Q9NR97); assay: TLR8 Stimulation determined using HEK-Blue Detection; type: cell-based; conditions: HEK-Blue hTLR8 cells, 16 hr, percentages of maximum activation with Resiquimod or Motolimod, Table 3
T1 construct: expressed in transfected cells; host or cells: HEK293 (HEK-Blue hTLR8)
T1 sequence (Q9NR97 27-1041): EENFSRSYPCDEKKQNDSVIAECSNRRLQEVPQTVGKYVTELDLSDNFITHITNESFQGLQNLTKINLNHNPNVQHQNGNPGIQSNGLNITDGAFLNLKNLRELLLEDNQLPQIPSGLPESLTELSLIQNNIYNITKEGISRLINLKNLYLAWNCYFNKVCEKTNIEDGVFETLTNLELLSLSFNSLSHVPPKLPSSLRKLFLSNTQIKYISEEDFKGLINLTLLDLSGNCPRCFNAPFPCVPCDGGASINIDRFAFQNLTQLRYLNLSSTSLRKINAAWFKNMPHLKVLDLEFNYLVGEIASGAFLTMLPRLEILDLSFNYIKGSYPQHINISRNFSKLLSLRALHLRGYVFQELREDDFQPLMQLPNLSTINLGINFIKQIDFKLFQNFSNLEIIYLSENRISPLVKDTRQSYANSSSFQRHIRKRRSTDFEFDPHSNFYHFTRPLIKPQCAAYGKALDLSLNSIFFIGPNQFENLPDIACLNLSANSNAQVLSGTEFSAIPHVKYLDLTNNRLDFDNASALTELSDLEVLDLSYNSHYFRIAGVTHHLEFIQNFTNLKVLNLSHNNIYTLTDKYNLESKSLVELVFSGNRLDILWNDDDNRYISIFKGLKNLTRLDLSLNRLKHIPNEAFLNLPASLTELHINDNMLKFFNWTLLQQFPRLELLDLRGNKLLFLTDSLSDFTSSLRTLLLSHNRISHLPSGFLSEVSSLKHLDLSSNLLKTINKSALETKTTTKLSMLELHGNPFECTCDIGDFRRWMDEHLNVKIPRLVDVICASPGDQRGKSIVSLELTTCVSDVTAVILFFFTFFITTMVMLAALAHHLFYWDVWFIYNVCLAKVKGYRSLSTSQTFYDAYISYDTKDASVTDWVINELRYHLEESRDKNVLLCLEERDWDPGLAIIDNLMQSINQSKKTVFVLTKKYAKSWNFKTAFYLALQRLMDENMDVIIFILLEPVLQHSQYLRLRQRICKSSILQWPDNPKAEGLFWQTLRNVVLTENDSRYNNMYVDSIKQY
Text: TLR8 Stimulation determined using HEK-Blue Detection
(§1) This assay was designed for studying the stimulation of human TLR 8 protein in HEK-Blue hTLR8 tool cell line by monitoring the activation of NF-κB. HEK-Blue hTLR8 cells were obtained by co-transfection of the hTLR8 gene and an optimized secreted embryonic alkaline phosphatase (SEAP) reporter gene into HEK293 cells. The SEAP reporter gene was placed under the control of the IFN-β minimal promoter fused to five NF-κB and AP-1-binding sites. Stimulation with a TLR 8 ligand activates NF-κB and AP-1 which induce the expression of SEAP. Levels of SEAP can be easily determined with HEK-Blue Detection, a cell culture medium that allows for real-time detection of SEAP. HEK-Blue Detection contains all the nutrients necessary for cell growth and a specific SEAP color substrate. The hydrolysis of the substrate by SEAP produces a purple/blue color that can be measured with a spectrophotometer.
(§2) When growing to 50-80% confluency, HEK-Blue hTLR7/8 cells were plated into 96-well plate (costar 3599) at a density of 40000 cells/well. Then compounds were added with serial dilutions over 10 points with a 1 nM-10 uM final concentration range in 0.1% DMSO/HEK-Blue Detection. The plates were then incubated for 16 hr at 37° C. in 5% CO2. The optical density at 620-655 nm was read on BMG PHERAstar FSX instrument. The EC50 for each compound was determined by calculating the percentages of the maximum activation identified with Resiquimod or Motolimod.

human TLR7 = biological target: T2, human TLR7 (Homo sapiens, UniProt Q9NYK1); assay: TLR7 Stimulation Determined Using HEK-Blue Detection; type: cell-based; conditions: HEK-Blue hTLR7 cells, 16 hr, percentages of maximum activation with Resiquimod, Table 1, B233-B247
T2 construct: host or cells: HEK293 (HEK-Blue hTLR7)
T2 sequence (Q9NYK1 27-1049): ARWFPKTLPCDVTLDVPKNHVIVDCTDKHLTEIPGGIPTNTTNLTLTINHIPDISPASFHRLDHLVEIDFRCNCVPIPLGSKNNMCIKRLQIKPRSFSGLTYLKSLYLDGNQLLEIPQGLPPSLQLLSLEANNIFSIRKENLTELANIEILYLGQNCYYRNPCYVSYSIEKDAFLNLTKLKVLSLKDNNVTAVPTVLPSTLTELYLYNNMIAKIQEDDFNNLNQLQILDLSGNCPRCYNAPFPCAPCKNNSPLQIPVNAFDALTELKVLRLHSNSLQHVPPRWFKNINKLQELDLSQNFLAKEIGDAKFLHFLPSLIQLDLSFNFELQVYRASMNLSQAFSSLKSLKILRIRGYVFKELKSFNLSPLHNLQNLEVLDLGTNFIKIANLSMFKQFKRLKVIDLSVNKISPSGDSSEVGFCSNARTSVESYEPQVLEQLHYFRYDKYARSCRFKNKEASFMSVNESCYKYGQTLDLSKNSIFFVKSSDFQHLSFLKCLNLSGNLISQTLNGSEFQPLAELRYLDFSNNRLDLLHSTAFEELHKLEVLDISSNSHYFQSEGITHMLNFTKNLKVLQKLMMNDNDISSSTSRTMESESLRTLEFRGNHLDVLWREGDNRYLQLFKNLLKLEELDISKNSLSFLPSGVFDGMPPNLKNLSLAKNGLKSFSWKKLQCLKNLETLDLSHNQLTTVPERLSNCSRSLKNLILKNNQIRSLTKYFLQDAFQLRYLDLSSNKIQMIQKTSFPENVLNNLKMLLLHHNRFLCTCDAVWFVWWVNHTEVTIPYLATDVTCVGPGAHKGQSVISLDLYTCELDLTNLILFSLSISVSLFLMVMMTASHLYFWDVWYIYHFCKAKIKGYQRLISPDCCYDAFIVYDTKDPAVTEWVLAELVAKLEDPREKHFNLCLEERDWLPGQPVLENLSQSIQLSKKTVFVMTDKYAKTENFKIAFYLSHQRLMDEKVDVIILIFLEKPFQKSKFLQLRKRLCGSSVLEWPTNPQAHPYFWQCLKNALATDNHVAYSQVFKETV
Text: TLR7 Stimulation Determined Using HEK-Blue Detection
as §1, with “TLR7” for “TLR 8”, “hTLR7” for “hTLR8”
as §2, with “HEK-Blue hTLR7” for “HEK-Blue hTLR7/8”, “a 0.04” for “a 1”, “nM-10 μM” for “nM-10 uM”, “5% CO2 and vortex for 30 s before measurement.” for “5% CO2.”, “with Resiquimod.” for “with Resiquimod or Motolimod.”

## CCC[C@H](C)Oc1nc(N)c2ncc(Cc3cnc(N4CCNCC4)c(OC)c3)n2n1 [Compound B241, (S)-7-((5-methoxy-6-(piperazin-1-yl)pyridin-3-yl)methyl)-2-(pentan-2-yloxy)imidazo[2,1-f][1,2,4]triazin-4-amine]
Human TLR 8 protein
  EC50: 445 nM
Human TLR7
  EC50: 5.5 nM

## CCC[C@H](C)Nc1nc(N)c2ncc(Cc3cnc(N4CCC(CN(C)CCNC)CC4)c(C)c3)n2n1 [Compound B245, (S)-7-((5-methyl-6-(4-((methyl(2-(methylamino)ethyl)amino)methyl)piperidin-1-yl)pyridin-3-yl)methyl)-N2-(pentan-2-yl)imidazo[2,1-f][1,2,4]triazine-2,4-diamine]
Human TLR 8 protein
  EC50: 485 nM
Human TLR7
  EC50: 2.5 nM

## CCC[C@H](C)Oc1nc(N)c2ncc(Cc3ccc(C4CCNCC4)nc3F)n2n1 [Compound B239, (S)-7-((2-fluoro-6-(piperidin-4-yl)pyridin-3-yl)methyl)-2-(pentan-2-yloxy)imidazo[2,1-f][1,2,4]triazin-4-amine]
Human TLR 8 protein
  EC50: 122 nM
Human TLR7
  EC50: 3.3 nM

## CCC[C@H](C)Oc1nc(N)c2ncc(Cc3ccn(C4CCNCC4)c(=O)c3)n2n1 [Compound B243, (S)-4-((4-amino-2-(pentan-2-yloxy)imidazo[2,1-f][1,2,4]triazin-7-yl)methyl)-1-(piperidin-4-yl)pyridin-2(1H)-one]
Human TLR 8 protein
  EC50: 365 nM
Human TLR7
  EC50: 35 nM

## CCCC(C)Oc1nc(N)c2ncc(Cc3ccc(C4CCNCC4)nc3F)n2n1 (centres unmarked) [Compound B238, 7-((2-fluoro-6-(piperidin-4-yl)pyridin-3-yl)methyl)-2-(pentan-2-yloxy)imidazo[2,1-f][1,2,4]triazin-4-amine]
Human TLR 8 protein
  EC50: 169 nM
Human TLR7
  EC50: 6.7 nM

## CCC[C@H](C)Nc1nc(N)c2ncc(Cc3cnc(N4CCN[C@@H](CC#N)C4)c(C)c3)n2n1 [Compound B233, 2-((S)-4-(5-((4-amino-2-(((S)-pentan-2-yl)amino)imidazo[2,1-f][1,2,4]triazin-7-yl)methyl)-3-methylpyridin-2-yl)piperazin-2-yl)acetonitrile]
Human TLR 8 protein
  EC50: > 10000 nM
Human TLR7
  EC50: 18.4 nM

## CCC[C@H](C)Nc1nc(N)c2ncc(Cc3cnc(C4CCNCC4)c(C)c3)n2n1 [Compound B240, (S)-7-((5-methyl-6-(piperidin-4-yl)pyridin-3-yl)methyl)-N2-(pentan-2-yl)imidazo[2,1-f][1,2,4]triazine-2,4-diamine]
Human TLR 8 protein
  EC50: 1510 nM
Human TLR7
  EC50: 1 nM

## CCCC(CO)Oc1nc(N)c2ncc(Cc3cnc(N4CCC(CNC)CC4)c(C)c3)n2n1 (centres unmarked) [Compound B235, 2-((4-amino-7-((5-methyl-6-(4-((methylamino)methyl)piperidin-1-yl)pyridin-3-yl)methyl)imidazo[2,1-f][1,2,4]triazin-2-yl)oxy)pentan-1-ol]
Human TLR 8 protein
  EC50: 3630 nM
Human TLR7
  EC50: 63 nM

## CCC[C@H](C)Nc1nc(N)c2ncc(Cc3cnc(N4CCN(C(=O)CN(C)CCNC)CC4)c(C)c3)n2n1 [Compound B244, (S)-1-(4-(5-((4-amino-2-(pentan-2-ylamino)imidazo[2,1-f][1,2,4]triazin-7-yl)methyl)-3-methylpyridin-2-yl)piperazin-1-yl)-2-(methyl(2-(methylamino)ethyl)amino)ethan-1-one]
Human TLR 8 protein
  EC50: > 10000 nM
Human TLR7
  EC50: 12 nM

## CCCC(CCO)Oc1nc(N)c2ncc(Cc3ccc(C4CCNCC4)nc3F)n2n1 (centres unmarked) [Compound B242, 3-((4-amino-7-((2-fluoro-6-(piperidin-4-yl)pyridin-3 yl)methyl)imidazo[2,1-f][1,2,4]triazin-2-yl)oxy)hexan-1-ol]
Human TLR 8 protein
  EC50: 74 nM
Human TLR7
  EC50: 9.8 nM
